# Assay results: PubChem BioAssay (NCI)
#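 Five concentrations, 48 hours, 96-well plates. The concentration for 50% growth inhibition is given as GI50. Definition used: TGI = concentration required for complete inhibition of growth.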
# Assays:
# Experiment in all cases: NCI anticancer screen, dose series, 48 h
# [1] = tested on: 786-0 renal
# [2] = tested on: A498 renal
# [3] = tested on: A549 NSCLC
# [4] = tested on: ACHN renal
# [5] = tested on: CAKI-1 renal
# [6] = tested on: CCRF-CEM leukemia
# [7] = tested on: COLO 205 colon
# [8] = tested on: DU-145 prostate
# [9] = tested on: EKVX NSCLC
# [10] = tested on: HCC-2998 colon
# [11] = tested on: HCT-116 colon
# [12] = tested on: HCT-15 colon
# [13] = tested on: HL-60(TB) leukemia
# [14] = tested on: HOP-62 NSCLC
# [15] = tested on: HOP-92 NSCLC
# [16] = tested on: HS 578T breast
# [17] = tested on: HT29 colon
# [18] = tested on: IGROV1 ovarian
# [19] = tested on: K-562 leukemia
# [20] = tested on: KM12 colon
# [21] = tested on: LOX IMVI melanoma
# [22] = tested on: M14 melanoma
# [23] = tested on: MALME-3M melanoma
# [24] = tested on: MCF7 breast
# [25] = tested on: MDA-MB-231 breast
# [26] = tested on: MDA-MB-435
# [27] = tested on: MOLT-4 leukemia
# [28] = tested on: NCI-H226 lung
# [29] = tested on: NCI-H23 lung
# [30] = tested on: NCI-H460 lung
# [31] = tested on: NCI-H522 lung
# [32] = tested on: NCI/ADR-RES ovarian
# [33] = tested on: OVCAR-3 ovarian
# [34] = tested on: OVCAR-4 ovarian
# [35] = tested on: OVCAR-5 ovarian
# [36] = tested on: OVCAR-8 ovarian
# [37] = tested on: PC-3 prostate
# [38] = tested on: RPMI-8226 leukemia
# [39] = tested on: RXF 393 renal
# [40] = tested on: SF-268 CNS
# [41] = tested on: SF-295 CNS
# [42] = tested on: SF-539 CNS
# [43] = tested on: SK-MEL-2 melanoma
# [44] = tested on: SK-MEL-28 melanoma
# [45] = tested on: SK-MEL-5 melanoma
# [46] = tested on: SK-OV-3 ovarian
# [47] = tested on: SN12C renal
# [48] = tested on: SNB-19 CNS
# [49] = tested on: SNB-75 CNS
# [50] = tested on: SR leukemia
# [51] = tested on: SW-620 colon
# [52] = tested on: T-47D breast
# [53] = tested on: TK-10 renal
# [54] = tested on: U251 CNS
# [55] = tested on: UACC-257 melanoma
# [56] = tested on: UACC-62 melanoma
# [57] = tested on: UO-31 renal
# [58] = tested on: BT-549 breast
smiles,measurement,setting,value
CCCC(CCC)NCC(O)c1cc(-c2ccc(C(F)(F)F)cc2)nc(C(F)(F)F)c1 (centres undefined),GI50,[1],1.37 µM
same,TGI,[1],2.9 µM
same,GI50,[2],1.35 µM
same,TGI,[2],2.67 µM
same,GI50,[3],1.79 µM
same,TGI,[3],3.28 µM
same,GI50,[4],1.63 µM
same,TGI,[4],3.16 µM
same,GI50,[5],1.94 µM
same,TGI,[5],3.98 µM
same,GI50,[6],2.46 µM
same,TGI,[6],5.7 µM
same,GI50,[7],2 µM
same,TGI,[7],3.63 µM
same,GI50,[8],1.94 µM
same,TGI,[8],3.39 µM
same,GI50,[9],2.01 µM
same,TGI,[9],3.81 µM
same,GI50,[10],1.68 µM
same,TGI,[10],3.1 µM
same,GI50,[11],1.66 µM
same,TGI,[11],3.24 µM
same,GI50,[12],1.77 µM
same,TGI,[12],3.53 µM
same,GI50,[13],2.11 µM
same,TGI,[13],3.97 µM
same,GI50,[14],1.66 µM
same,TGI,[14],3.12 µM
same,GI50,[15],1.43 µM
same,TGI,[15],2.87 µM
same,GI50,[16],1.69 µM
same,TGI,[16],4.14 µM
same,GI50,[17],1.83 µM
same,TGI,[17],3.32 µM
same,GI50,[18],2.09 µM
same,TGI,[18],4.09 µM
same,GI50,[19],1.93 µM
same,TGI,[19],3.8 µM
same,GI50,[20],1.93 µM
same,TGI,[20],3.42 µM
same,GI50,[21],1.53 µM
same,TGI,[21],2.97 µM
same,GI50,[22],1.75 µM
same,TGI,[22],3.32 µM
same,GI50,[23],2.05 µM
same,TGI,[23],4.02 µM
same,GI50,[24],1.43 µM
same,TGI,[24],2.87 µM
same,GI50,[25],1.53 µM
same,TGI,[25],3.17 µM
same,GI50,[26],1.96 µM
same,TGI,[26],3.74 µM
same,GI50,[27],1.89 µM
same,TGI,[27],3.84 µM
same,GI50,[28],1.59 µM
same,TGI,[28],3.08 µM
same,GI50,[29],1.58 µM
same,TGI,[29],3.15 µM
same,GI50,[30],1.77 µM
same,TGI,[30],3.4 µM
same,GI50,[31],1.71 µM
same,TGI,[31],3.26 µM
same,GI50,[32],1.63 µM
same,TGI,[32],3.25 µM
same,GI50,[33],1.93 µM
same,TGI,[33],3.38 µM
same,GI50,[34],1.83 µM
same,TGI,[34],3.32 µM
same,GI50,[35],1.55 µM
same,TGI,[35],2.95 µM
same,GI50,[36],1.83 µM
same,TGI,[36],3.68 µM
same,GI50,[37],1.75 µM
same,TGI,[37],3.33 µM
same,GI50,[38],2.15 µM
same,TGI,[38],4.87 µM
same,GI50,[39],1.47 µM
same,TGI,[39],2.82 µM
same,GI50,[40],1.86 µM
same,TGI,[40],3.38 µM
same,GI50,[41],1.99 µM
same,TGI,[41],3.78 µM
same,GI50,[42],1.67 µM
same,TGI,[42],3.26 µM
same,GI50,[43],2.27 µM
same,TGI,[43],3.92 µM
same,GI50,[44],1.92 µM
same,TGI,[44],3.45 µM
same,GI50,[45],1.73 µM
same,TGI,[45],3.1 µM
same,GI50,[46],1.75 µM
same,TGI,[46],3.22 µM
same,GI50,[47],1.69 µM
same,TGI,[47],3.2 µM
same,GI50,[48],1.79 µM
same,TGI,[48],3.42 µM
same,GI50,[49],1.72 µM
same,TGI,[49],3.3 µM
same,GI50,[50],1.4 µM
same,TGI,[50],3.27 µM
same,GI50,[51],1.57 µM
same,TGI,[51],3.05 µM
same,GI50,[52],1.7 µM
same,TGI,[52],3.3 µM
same,GI50,[53],1.98 µM
same,TGI,[53],3.44 µM
same,GI50,[54],1.74 µM
same,TGI,[54],3.22 µM
same,GI50,[55],1.8 µM
same,TGI,[55],3.45 µM
same,GI50,[56],1.72 µM
same,TGI,[56],3.25 µM
same,GI50,[57],1.58 µM
same,TGI,[57],3.13 µM
Nc1ccccc1C#C/C=C\C#Cc1ccccc1N,GI50,[1],13.7 µM
same,TGI,[1],42.9 µM
same,GI50,[2],13.6 µM
same,TGI,[2],36 µM
same,GI50,[3],41.5 µM
same,TGI,[3],> 100 µM
same,GI50,[4],19.9 µM
same,TGI,[4],50.9 µM
same,GI50,[58],11.5 µM
same,TGI,[58],41.2 µM
same,GI50,[5],6.86 µM
same,TGI,[5],39 µM
same,GI50,[6],3.93 µM
same,TGI,[6],32.4 µM
same,GI50,[7],31.3 µM
same,TGI,[7],> 100 µM
same,GI50,[8],26.8 µM
same,TGI,[8],> 100 µM
same,GI50,[9],17 µM
same,TGI,[9],69.5 µM
same,GI50,[10],0.0333 µM
same,TGI,[10],24.4 µM
same,GI50,[11],4.15 µM
same,TGI,[11],19.1 µM
same,GI50,[12],14.1 µM
same,TGI,[12],33.3 µM
same,GI50,[13],4.18 µM
same,TGI,[13],33.7 µM
same,GI50,[14],12.1 µM
same,TGI,[14],32.3 µM
same,GI50,[15],1.2 µM
same,TGI,[15],12.2 µM
same,GI50,[17],32 µM
same,TGI,[17],> 100 µM
same,GI50,[18],34.6 µM
same,TGI,[18],> 100 µM
same,GI50,[19],0.583 µM
same,TGI,[19],14.2 µM
same,GI50,[20],3.26 µM
same,TGI,[20],27.6 µM
same,GI50,[21],17.9 µM
same,TGI,[21],33.7 µM
same,GI50,[22],5.04 µM
same,TGI,[22],22.7 µM
same,GI50,[23],7.86 µM
same,TGI,[23],32.9 µM
same,GI50,[24],9.98 µM
same,TGI,[24],> 100 µM
same,GI50,[25],12.5 µM
same,TGI,[25],30.4 µM
same,GI50,[26],1.43 µM
same,TGI,[26],4.58 µM
same,GI50,[27],1.04 µM
same,TGI,[27],17.3 µM
same,GI50,[28],19.6 µM
same,TGI,[28],53.8 µM
same,GI50,[29],18.6 µM
same,TGI,[29],62.9 µM
same,GI50,[30],6.51 µM
same,TGI,[30],80.4 µM
same,GI50,[31],16.3 µM
same,TGI,[31],44.5 µM
same,GI50,[32],2.26 µM
same,TGI,[32],7.95 µM
same,GI50,[33],1.72 µM
same,TGI,[33],9.1 µM
same,GI50,[34],34.2 µM
same,TGI,[34],> 100 µM
same,GI50,[35],10.9 µM
same,TGI,[35],40.7 µM
same,GI50,[36],28.1 µM
same,TGI,[36],74.7 µM
same,GI50,[37],7.39 µM
same,TGI,[37],29.1 µM
same,GI50,[39],16.8 µM
same,TGI,[39],47.6 µM
same,GI50,[40],10.7 µM
same,TGI,[40],37.9 µM
same,GI50,[41],7.71 µM
same,TGI,[41],25.4 µM
same,GI50,[42],10.1 µM
same,TGI,[42],26.6 µM
same,GI50,[43],16.3 µM
same,TGI,[43],60.7 µM
same,GI50,[44],28.7 µM
same,TGI,[44],82 µM
same,GI50,[45],1.95 µM
same,TGI,[45],17.5 µM
same,GI50,[46],23.2 µM
same,TGI,[46],54.9 µM
same,GI50,[47],21.8 µM
same,TGI,[47],54.4 µM
same,GI50,[48],48.9 µM
same,TGI,[48],> 100 µM
same,GI50,[49],29.4 µM
same,TGI,[49],> 100 µM
same,GI50,[51],2.91 µM
same,TGI,[51],18.4 µM
same,GI50,[52],26.9 µM
same,TGI,[52],> 100 µM
same,GI50,[53],8.33 µM
same,TGI,[53],36.1 µM
same,GI50,[54],13.9 µM
same,TGI,[54],32.2 µM
same,GI50,[55],41.3 µM
same,TGI,[55],> 100 µM
same,GI50,[56],11.4 µM
same,TGI,[56],27.5 µM
same,GI50,[57],11.4 µM
same,TGI,[57],34.1 µM
